Drawing on patent US10106534B2 (CELGENE QUANTICEL RESEARCH, INC., priority 2014, dated 2018), this text covers IC50 for 23 compounds.

One experiment has as its target JMJD3 (Homo sapiens, UniProt O15054). Kind of experiment: In vitro enzyme inhibition assay for JMJD3 activity (TR-FRET). Type of experiment: biochemical. As for the experimental part:
This assay determines the ability of a test compound to inhibit JMJD3 demethylase activity.
The enzymatic assay of JMJD3 activity is based upon Time Resolved-Fluorescence Resonance Energy Transfer (TR-FRET) detection. […] Reaction product was determined quantitatively by TR-FRET after the addition of detection reagent Phycolink Streptavidin-allophycocyanin (Prozyme) and Europium-anti-di-methylated histone H3 lysine 27 (H3K27me2) antibody (PerkinElmer) in the presence of 5 mM EDTA in LANCE detection buffer (PerkinElmer) at a final concentration of 50 nM and 1 nM, respectively.
The reaction mixture was incubated at room temperature for 30 minutes, and terminated by the addition of 6 μL of 5 mM EDTA in LANCE detection buffer containing 100 nM Phycolink Streptavidin-allophycocyanin and 2 nM Europium-anti-H3K27me2 antibody.

Another experiment addresses JMJD2C (Homo sapiens (Human), UniProt Q9H3R0). The experiment in a line: In vitro enzyme inhibition assay for JMJD2C activity (TR-FRET). Format: biochemical. In outline:
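Baculovirus JMJD2C (AA 2-372), 0.3 nM, with 300 nM biotin-H3K9me3 peptide and 2 μM α-ketoglutarate in HEPES pH 7.3 containing Fe(II) and ascorbate, 30 min at room temperature, 11-point dilutions. H3K9me2 product by TR-FRET (Eu-antibody/streptavidin-APC, 665/615 ratio); IC50 fitted.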
On the technique in general: TR-FRET usually uses a lanthanide donor and a delayed reading to cut background.

Experiment [1] concerns KYSE-150 esophageal carcinoma cell line. Kind of experiment: In vitro cell-based assay: cellular proliferation via BrdU incorporation (ELISA). The settings on record: Homo sapiens, KYSE-150, 168 hours compound incubation. On the set-up: species or system human. Summed up: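 KYSE-150 cells (JMJD2C-amplified; SMAD4 and TP53 mutant), 2,000/well, were treated after overnight attachment with an 11-point series (100 μM to 2 nM) for 168 h. Proliferation was read by BrdU ELISA (2 h labelling, anti-BrdU-peroxidase, TMB, 450 nm) and IC50 fitted.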

Chain of JMJD2C (Q9H3R0 2-372): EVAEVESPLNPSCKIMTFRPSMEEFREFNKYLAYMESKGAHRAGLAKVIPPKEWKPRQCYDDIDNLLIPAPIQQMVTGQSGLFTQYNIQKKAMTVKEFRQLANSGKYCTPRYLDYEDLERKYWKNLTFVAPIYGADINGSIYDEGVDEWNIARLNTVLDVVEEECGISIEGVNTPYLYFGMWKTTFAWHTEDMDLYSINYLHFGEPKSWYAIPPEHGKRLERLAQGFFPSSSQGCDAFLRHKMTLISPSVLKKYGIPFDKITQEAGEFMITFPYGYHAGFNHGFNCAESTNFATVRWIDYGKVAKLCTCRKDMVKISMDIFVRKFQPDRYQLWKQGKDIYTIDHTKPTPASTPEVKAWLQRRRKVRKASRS

In general, IC50 refers to the point on the concentration scale where inhibition reaches its midpoint. `COCc1ccc(N(C)c2ccc3c(c2)CCC[C@H]3CNc2cnccc2C(=O)O)cc1` [Example 164, 3-({[(1R)-6-{[4-(methoxymethyl)phenyl](methyl)amino}-1,2,3,4-tetrahydronaphthalen-1-yl]methyl}amino)pyridine-4-carboxylic acid]: the values for the IC50 (against JMJD3; at JMJD2C; in experiment [1]) were 1000 to 10000 nM, 100 to 1000 nM and ≤ 100 nM, respectively.

Consider `CN(c1ccc(-n2ccnc2)cc1)c1ccc2c(c1)CCC[C@H]2CNc1cnccc1C(=O)O` [Example 193, 3-({[(1R)-6-{[4-(1H-imidazol-1-yl)phenyl](methyl)amino}-1,2,3,4-tetrahydronaphthalen-1-yl]methyl}amino)pyridine-4-carboxylic acid], for which the values for the IC50 (at JMJD3; against JMJD2C; in experiment [1]) were 1000 to 10000 nM, 100 to 1000 nM and 100 to 1000 nM, respectively.

`Cc1cnc(N(C)c2ccc3c(c2)CCC[C@H]3CNc2cnccc2C(=O)O)nc1` [Example 156, 3-({[(1R)-6-[methyl(5-methylpyrimidin-2-yl)amino]-1,2,3,4-tetrahydronaphthalen-1-yl]methyl}amino)pyridine-4-carboxylic acid]: the IC50 was 1000 to 10000 nM on JMJD3, 100 to 1000 nM at JMJD2C and 100 to 1000 nM in experiment [1].

On to `O=C(O)c1ccncc1NCC1CCOc2cc(N3CCCc4ccccc43)ccc21` (stereo not drawn) [Example 16, 3-({[7-(1,2,3,4-tetrahydroquinolin-1-yl)-3,4-dihydro-2H-1-benzopyran-4-yl]methyl}amino)pyridine-4-carboxylic acid], for which the values for the IC50 (on JMJD3; against JMJD2C; in experiment [1]) were 1000 to 10000 nM, 100 to 1000 nM and 100 to 1000 nM, respectively.

On to `Cc1ccc(N(C)c2ccc3c(c2)OCC[C@H]3CNc2cnccc2C(=O)O)nc1` [Example 145, 3-({[(4R)-7-[methyl(5-methylpyridin-2-yl)amino]-3,4-dihydro-2H-1-benzopyran-4-yl]methyl}amino)pyridine-4-carboxylic acid], for which the IC50 was 1000 to 10000 nM against JMJD3, ≤ 100 nM against JMJD2C and ≤ 100 nM in experiment [1].

For the compound `Cc1cccc(N(C)c2ccc3c(c2)CCC[C@H]3CNc2cnccc2C(=O)O)n1` [Example 123, 3-({[(1R)-6-[methyl(6-methylpyridin-2-yl)amino]-1,2,3,4-tetrahydronaphthalen-1-yl]methyl}amino)pyridine-4-carboxylic acid], the results for the 50% inhibitory concentration (IC50) (on JMJD3; at JMJD2C; in experiment [1]) were 1000 to 10000 nM, 100 to 1000 nM and ≤ 100 nM, respectively.

As to `O=C(O)c1ccncc1NCC1CCOc2cc(-c3ccoc3)ccc21` (stereo not drawn) [Example 28, 3-({[7-(furan-3-yl)-3,4-dihydro-2H-1-benzopyran-4-yl]methyl}amino)pyridine-4-carboxylic acid], the 50% inhibitory concentration (IC50) at JMJD3 was < 100 nM; against JMJD2C it was 100 to 1000 nM; in experiment [1] it was 1000 to 10000 nM.

Take `O=C(O)c1ccncc1NC[C@@H]1CCOc2cc(-c3ccccc3Cl)ccc21` [Example 40, 3-({[(4R)-7-(2-chlorophenyl)-3,4-dihydro-2H-1-benzopyran-4-yl]methyl}amino)pyridine-4-carboxylic acid]: the IC50 against JMJD3 was 1000 to 10000 nM; on JMJD2C, 100 to 1000 nM; in experiment [1], ≤ 100 nM.

As for `CN(c1ccc(-n2ccnc2)cc1)c1ccc2c(c1)OCC[C@H]2CNc1cnccc1C(=O)O` [Example 194, 3-({[(4R)-7-{[4-(1H-imidazol-1-yl)phenyl](methyl)amino}-3,4-dihydro-2H-1-benzopyran-4-yl]methyl}amino)pyridine-4-carboxylic acid], the 50% inhibitory concentration (IC50) was in the range of 1000 to 10000 nM at JMJD3, 100 to 1000 nM at JMJD2C and 1000 to 10000 nM in experiment [1].

For the compound `CN(c1ccc(N2CCOCC2)cc1)c1ccc2c(c1)CCC[C@H]2CNc1cnccc1C(=O)O` [Example 170, 3-({[(1R)-6-{methyl[4-(morpholin-4-yl)phenyl]amino}-1,2,3,4-tetrahydronaphthalen-1-yl]methyl}amino)pyridine-4-carboxylic acid], the IC50 on JMJD3 was 1000 to 10000 nM; against JMJD2C, 100 to 1000 nM; in experiment [1] it was ≤ 100 nM.

Consider `Cc1noc(C)c1N(C)c1ccc2c(c1)CCC[C@H]2CNc1cnccc1C(=O)O` [Example 166, 3-({[(1R)-6-[(dimethyl-1,2-oxazol-4-yl)(methyl)amino]-1,2,3,4-tetrahydronaphthalen-1-yl]methyl}amino)pyridine-4-carboxylic acid], for which the values for the IC50 (on JMJD3; on JMJD2C; in experiment [1]) were 1000 to 10000 nM, 100 to 1000 nM and > 10000 nM, respectively.

On to `CN(c1ccc(OCC2CC2)cc1)c1ccc2c(c1)CCC[C@H]2CNc1cnccc1C(=O)O` [Example 209, 3-({[(1R)-6-{[4-(cyclopropylmethoxy)phenyl](methyl)amino}-1,2,3,4-tetrahydronaphthalen-1-yl]methyl}amino)pyridine-4-carboxylic acid], for which the concentration for half-maximal inhibition (IC50) against JMJD3 was 1000 to 10000 nM; on JMJD2C, 100 to 1000 nM; in experiment [1] it was ≤ 100 nM.

For the compound `CN(c1ccc(C2CCOCC2)cc1)c1ccc2c(c1)OCC[C@H]2CNc1cnccc1C(=O)O` [Example 202, 3-({[(4R)-7-{methyl[4-(oxan-4-yl)phenyl]amino}-3,4-dihydro-2H-1-benzopyran-4-yl]methyl}amino)pyridine-4-carboxylic acid], the IC50 is 1000 to 10000 nM against JMJD3, 100 to 1000 nM on JMJD2C and ≤ 100 nM in experiment [1].

As to `C#Cc1ccc(N(C)c2ccc3c(c2)OCC[C@H]3CNc2cnccc2C(=O)O)cc1` [Example 126, 3-({[(4R)-7-[(4-ethynylphenyl)(methyl)amino]-3,4-dihydro-2H-1-benzopyran-4-yl]methyl}amino)pyridine-4-carboxylic acid], the figures for the IC50 (against JMJD3; at JMJD2C; in experiment [1]) were 1000 to 10000 nM, 100 to 1000 nM and 100 to 1000 nM, respectively.

As for `CCc1ccc(N(C)c2ccc3c(c2)OCC[C@H]3CNc2cnccc2C(=O)O)nc1` [Example 157, 3-({[(4R)-7-[(5-ethylpyridin-2-yl)(methyl)amino]-3,4-dihydro-2H-1-benzopyran-4-yl]methyl}amino)pyridine-4-carboxylic acid], the IC50 at JMJD3 was 1000 to 10000 nM; at JMJD2C it was 100 to 1000 nM; in experiment [1], ≤ 100 nM.

With `Cc1ccc(N(C)c2ccc3c(c2)OCC[C@H]3CNc2cnccc2C(=O)O)cc1` [Example 22, 3-({[(4R)-7-[methyl(4-methylphenyl)amino]-3,4-dihydro-2H-1-benzopyran-4-yl]methyl}amino)pyridine-4-carboxylic acid], the figures for the half-maximal inhibitory concentration (IC50) (against JMJD3; against JMJD2C; in experiment [1]) were 1000 to 10000 nM, 100 to 1000 nM and ≤ 100 nM, respectively.

As for `CCN(c1ccccc1)c1ccc2c(c1)OCC[C@H]2CNc1cnccc1C(=O)O` [Example 24, 3-({[(4R)-7-[ethyl(phenyl)amino]-3,4-dihydro-2H-1-benzopyran-4-yl]methyl}amino)pyridine-4-carboxylic acid], the figures for the IC50 (against JMJD3; on JMJD2C; in experiment [1]) were 1000 to 10000 nM, 100 to 1000 nM and ≤ 100 nM, respectively.

Consider `CN(c1ccc2c(c1)CCC[C@H]2CNc1cnccc1C(=O)O)c1ccccn1` [Example 11, 3-({[(1R)-6-[methyl(pyridin-2-yl)amino]-1,2,3,4-tetrahydronaphthalen-1-yl]methyl}amino)pyridine-4-carboxylic acid], for which the results for the half-inhibitory concentration (IC50) (at JMJD3; at JMJD2C; in experiment [1]) were 1000 to 10000 nM, 100 to 1000 nM and ≤ 100 nM, respectively.

For `Cc1ccc(N(C)c2ccc3c(c2)CCC[C@H]3CNc2cnccc2C(=O)O)cc1` [Example 140, 3-({[(1R)-6-[methyl(4-methylphenyl)amino]-1,2,3,4-tetrahydronaphthalen-1-yl]methyl}amino)pyridine-4-carboxylic acid], the figures for the IC50 (at JMJD3; against JMJD2C; in experiment [1]) were 1000 to 10000 nM, 100 to 1000 nM and ≤ 100 nM, respectively.

Take `CN(C)c1ccc(N(C)c2ccc3c(c2)CCC[C@H]3CNc2cnccc2C(=O)O)cc1` [Example 160, 3-({[(1R)-6-{[4-(dimethylamino)phenyl](methyl)amino}-1,2,3,4-tetrahydronaphthalen-1-yl]methyl}amino)pyridine-4-carboxylic acid]: the IC50 against JMJD3 was 1000 to 10000 nM; on JMJD2C it was 100 to 1000 nM; in experiment [1], ≤ 100 nM.

For the compound `CN(c1ccc2c(c1)CCC[C@H]2CNc1cnccc1C(=O)O)c1cnn(C)c1` [Example 159, 3-({[(1R)-6-[methyl(1-methyl-1H-pyrazol-4-yl)amino]-1,2,3,4-tetrahydronaphthalen-1-yl]methyl}amino)pyridine-4-carboxylic acid], the 50% inhibitory concentration (IC50) lay in the range of 1000 to 10000 nM at JMJD3, 100 to 1000 nM against JMJD2C and 1000 to 10000 nM in experiment [1].

`CN(c1ccc(C2CC2)cc1)c1ccc2c(c1)OCC[C@H]2CNc1cnccc1C(=O)O` [Example 134, 3-({[(4R)-7-[(4-cyclopropylphenyl)(methyl)amino]-3,4-dihydro-2H-1-benzopyran-4-yl]methyl}amino)pyridine-4-carboxylic acid]: the figures for the IC50 (on JMJD3; against JMJD2C; in experiment [1]) were 1000 to 10000 nM, 100 to 1000 nM and ≤ 100 nM, respectively.

On to `CN(c1ccccc1)c1ccc2c(n1)CCCC2CNc1cnccc1C(=O)O` (stereo not drawn) [Example 26, 3-[({2-[methyl(phenyl)amino]-5,6,7,8-tetrahydroquinolin-5-yl}methyl)amino]pyridine-4-carboxylic acid], for which the IC50 was in the range of 1000 to 10000 nM at JMJD3, 100 to 1000 nM on JMJD2C and 1000 to 10000 nM in experiment [1].
